Entries after “also recorded” stand apart in the source; their conditions may differ.
Experiments:
[1] = test system: blood-cerebrospinal fluid barrier and blood-brain barrier; assay: Contrast-enhanced T1-weighted MRI of B-CSF-B / BBB permeability; assay type: in vivo, rat
Method: (§1) Adult male Wistar rats (Harlan-Olac, UK) were anaesthetised with fentanyl/fluanisone and midazolam (0.68 ml/kg of each). Using a 50 μm-tipped glass pipette, 1 μl rat recombinant TNF-α (NIBSC, Potters Bar, UK) solution was injected stereotaxically 1 mm anterior and 3 mm lateral to Bregma, at a depth of 4 mm into the left striatum. Animals were injected with either 0.3 μg/μl or 1.5 μg/μl of TNF-A, each in 0.1% BSA in low-endotoxin saline, or with vehicle solution only. Animals were positioned in the MRI probe (3.4 cm i.d. Alderman-Grant resonator) using a bite-bar. During MRI, anaesthesia was maintained with 0.8-1.2% halothane in 50% N2O/50% O2, ECG was monitored non-invasively and body temperature was maintained at […]. All procedures were approved by the United Kingdom Home Office.
Magnetic resonance images were acquired using a 300 MHz Varian Inova spectrometer (Varian, Palo Alto, Calif.). Anatomical images were acquired using a T2-weighted sequence (repetition time, TR, 3 sec; echo time, TE, 80 msec). […] Diffusion gradients were applied separately along three orthogonal axes and apparent diffusion coefficient (ADC) “trace” maps were calculated^40. […]

[2] = test system: rat brain striatum (tissue water diffusion); assay: Diffusion weighted MRI: apparent diffusion coefficient (ADC) of tissue water in striatum; assay type: in vivo; settings: 24 h
Method: as §1
(§2) Magnetic resonance images were acquired using a 300 MHz Varian Inova spectrometer (Varian, Palo Alto, Calif.). […] Diffusion gradients were applied separately along three orthogonal axes and apparent diffusion coefficient (ADC) “trace” maps were calculated^40. […]
(§3) Regions of Interest (ROI) encompassing the striatum were defined on T2-weighted images in each hemisphere, and applied to all images or calculated data maps for quantitation. For the rCBV maps and T2-weighted images the data are expressed as a ratio of injected/non-injected striatal values. […]

[3] = test system: rrTNF-α-induced reduction in striatal rCBV; assay: Effect of ET receptor antagonist on rrTNF-α-induced acute rCBV reduction (MRI); assay type: in vivo, rat; settings: 5 mg/kg i.v. 10 min prior to 1.5 μg intrastriatal rrTNF-α; 1.5 h
Method: as §1, §2, §3

In the case of `COc1cccc(Oc2c(NS(=O)(=O)c3ccc(C(C)(C)C)cc3)ncnc2OCCO)c1` [Ro 46-2005], the “BBB breakdown: increase in signal intensity of injected striatum” value ([1]; Ro 46-2005 pre-treatment + 1.5 g TNF-α (so in the source), 24 h) is reported as 10.3±2.7%, the “effect of pre-treatment on TNF-α-induced B-CSF-B breakdown” value ([1]; pre-treatment before TNF-α, 1.5 h) is reported as “did not significantly alter” and the “Apparent Diffusion Coefficient, Right (control) striatum” value ([2]; Ro 46-2005 i.v. pre-treatment + 1.5 μg rrTNF-α intrastriatal (left)) is reported as 7.23 ± 0.17 ×10^−4 mm^2/sec. The “effect of pre-treatment on TNF-α-induced reduction in ADC” value ([2]; pre-treatment before 1.5 μg rrTNF-α) was “not affected” and the “effect on rrTNF-α-induced reduction in striatal rCBV” value [3] was “No significant differences; also recorded: eliminated”.

From patent US20040180817A1, “Neuropathologies associated with expression of tnf-$g (a)” (priority 2001, published 2004)
